# Biological target: human APJ receptor (Homo sapiens (Human), UniProt P35414)
# Assay: Intracellular cAMP accumulation assay (APJ hcAMP, HTRF)
# Assay type: cell-based
# Conditions: HEK293 cells stably expressing human APJ receptor; inhibition of forskolin-mediated cAMP production; read-out: Human APJ cAMP EC50 Potency range
# Outline: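 HEK293 cells stably expressing human APJ, 5,000 per well, incubated 30 min at rt with compound, […] and 2 μM forskolin. cAMP measured by HTRF against a cAMP standard curve as inhibition of forskolin-driven production. EC50 from variable-slope sigmoidal fit.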
# human APJ receptor, sequence (P35414 whole entry): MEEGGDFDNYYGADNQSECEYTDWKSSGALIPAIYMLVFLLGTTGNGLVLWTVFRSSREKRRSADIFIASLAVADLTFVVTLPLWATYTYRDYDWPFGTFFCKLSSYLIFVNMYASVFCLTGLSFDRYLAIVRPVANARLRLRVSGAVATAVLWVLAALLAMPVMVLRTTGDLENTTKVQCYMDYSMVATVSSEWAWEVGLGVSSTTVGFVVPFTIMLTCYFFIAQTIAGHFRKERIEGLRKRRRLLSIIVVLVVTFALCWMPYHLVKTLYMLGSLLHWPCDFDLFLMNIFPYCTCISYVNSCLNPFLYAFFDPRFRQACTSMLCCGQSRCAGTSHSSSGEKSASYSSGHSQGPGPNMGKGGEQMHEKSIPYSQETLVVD
row,Compound,EC50 [nM]
1,"CCCCc1nc(=O)c(S(=O)(=O)C2CCNCC2)c(O)n1-c1c(OC)cccc1OC [Example 106, 2-Butyl-1-(2,6-dimethoxyphenyl)-6-hydroxy-5-(piperidin-4-ylsulfonyl)pyrimidin-4(1H)-one]",10 to 100
2,"CCCCc1nc(=O)c(S(=O)(=O)c2ccc(C(=O)NN)cc2)c(O)n1-c1c(OC)cccc1OC [Example 116, 4-((2-Butyl-1-(2,6-dimethoxyphenyl)-6-hydroxy-4-oxo-1,4-dihydropyrimidin-5-yl)sulfonyl)benzohydrazide]",0.01 to 10

# Results, then the molecule that gave them:
row,EC50 [nM],Compound
1,0.01 to 10,"CCCCc1nc(=O)c(S(=O)(=O)C2CCN(C(=O)OC(C)(C)C)CC2)c(O)n1-c1c(OC)cccc1OC [Example 105, tert-Butyl 4-((2-butyl-1-(2,6-dimethoxyphenyl)-6-hydroxy-4-oxo-1,4-dihydropyrimidin-5-yl)sulfonyl)piperidine-1-carboxylate]"
2,0.01 to 10,"CCCCc1nc(=O)c(S(=O)(=O)C2CCN(C)CC2)c(O)n1-c1c(OC)cccc1OC [Example 107, 2-Butyl-1-(2,6-dimethoxyphenyl)-6-hydroxy-5-((1-methylpiperidin-4-yl)sulfonyl)pyrimidin-4(1H)-one]"
3,0.01 to 10,"CCCCc1nc(=O)c(S(=O)(=O)C2CCN(C(=O)c3nnc(C)o3)CC2)c(O)n1-c1c(OC)cccc1OC [Example 110, 2-Butyl-1-(2,6-dimethoxyphenyl)-6-hydroxy-5-((1-(5-methyl-1,3,4-oxadiazole-2-carbonyl)piperidin-4-yl)sulfonyl)pyrimidin-4(1H)-one]"

# Same assay, conditions: human APJ, intracellular cAMP accumulation; read-out: Human APJ cAMP EC50 Potency range
row,Compound,EC50 [nM]
1,"CCCCc1nc(=O)c(S(=O)(=O)c2ccc(C)cn2)c(O)n1-c1c(CC)cccc1CC [Example 104, 2-butyl-1-(2,6-diethylphenyl)-6-hydroxy-5-[(5-methylpyridin-2-yl)sulfonyl]-1,4-dihydropyrimidin-4-one]",0.01 to 10
2,"CCCCc1nc(=O)c(S(=O)(=O)C2CCN(Cc3cccc(F)c3F)CC2)c(O)n1-c1c(CC)cccc1CC [Example 109, 2-butyl-1-(2,6-diethylphenyl)-5-({1-[(2,3-difluorophenyl)methyl]piperidin-4-yl}sulfonyl)-6-hydroxy-1,4-dihydropyrimidin-4-one]",0.01 to 10
3,"CCCCc1nc(=O)c(S(=O)(=O)C2CCN(C(=O)c3ccccc3)CC2)c(O)n1-c1c(OC)cccc1OC [Example 111, 5-[(1-benzoylpiperidin-4-yl)sulfonyl]-2-butyl-1-(2,6-dimethoxyphenyl)-6-hydroxy-1,4-dihydropyrimidin-4-one]",0.01 to 10
4,"CCCCc1nc(=O)c(S(=O)(=O)C2CCN(C(=O)c3ccc(Cl)cc3)CC2)c(O)n1-c1c(OC)cccc1OC [Example 112, 2-butyl-5-{[1-(4-chlorobenzoyl)piperidin-4-yl]sulfonyl}-1-(2,6-dimethoxyphenyl)-6-hydroxy-1,4-dihydropyrimidin-4-one]",0.01 to 10
5,"CCCCc1nc(=O)c(S(=O)(=O)c2ccc(-c3nnc(C4CC4)o3)cc2)c(O)n1-c1c(OC)cccc1OC [Example 117, 2-butyl-5-[4-(5-cyclopropyl-1,3,4-oxadiazol-2-yl)benzenesulfonyl]-1-(2,6-dimethoxyphenyl)-6-hydroxy-1,4-dihydropyrimidin-4-one]",0.01 to 10

# Further lines, results first:
row,EC50 [nM],Compound
1,0.01 to 10,"CCCCc1nc(=O)c(S(=O)(=O)C2CCN(CC)CC2)c(O)n1-c1c(OC)cccc1OC [Example 108, 2-butyl-1-(2,6-dimethoxyphenyl)-5-[(1-ethylpiperidin-4-yl)sulfonyl]-6-hydroxy-1,4-dihydropyrimidin-4-one]"
2,0.01 to 10,"CCCCc1nc(=O)c(S(=O)(=O)C2CCN(C(=O)C3CC3)CC2)c(O)n1-c1c(OC)cccc1OC [Example 113, 2-butyl-5-[(1-cyclopropanecarbonyl-piperidin-4-yl)sulfonyl]-1-(2,6-dimethoxyphenyl)-6-hydroxy-1,4-dihydropyrimidin-4-one]"
3,0.01 to 10,"CCCCc1nc(=O)c(S(=O)(=O)C2CCN(C(=O)CC(F)(F)F)CC2)c(O)n1-c1c(OC)cccc1OC [Example 114, 2-butyl-1-(2,6-dimethoxyphenyl)-6-hydroxy-5-{[1-(3,3,3-trifluoropropanoyl)piper-idin-4-yl]sulfonyl}-1,4-dihydropyrimidin-4-one]"
